For one test, the system named is IL6. The test can be described thus: IL-6 Quantification Assay (ELISA), LPS-stimulated RAW 264.7. Format: cell-based. Details: inhibition: dose or concentration left out as unconfirmed. Particulars: Mus musculus, RAW264.7; read-out: IL-6: % inh.
The next test has as its system TNF-alpha. The test can be described thus: TNF-alpha Quantification Assay (ELISA), LPS-stimulated RAW 264.7. Format: cell-based. Particulars: Mus musculus, RAW264.7; at 10 μM; read-out: TNFα: % inh. On the technique in general: An ELISA detects its analyte on a solid surface through an enzyme-linked reagent.
For test [1], the system named is MiaPaca-2 (expressing KRAS G12C mutant). The test can be described thus: Proliferation Assay (Cell Viability Assay). It counts as cell-based. The note with it: Homo sapiens, MIA PaCa-2; for pIC50: read-out: Proliferation in MiaPaca-2: IC50. Put shortly: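 After 2–4 days' exposure at 37 °C, 5% CO2 to a single 10 μM final concentration or a dilution series (IC50), percent proliferation inhibition was derived from CellTiter 96 Aqueous One viability readings. The medium contained 0.3% DMSO and 10% FBS. KRAS G12C MiaPaca-2 cells were plated at 2000–5000/well the day before.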

The next test relates to Akt phosphorylation. The test is described as follows: Akt Phosphorylation Assay (western blot), Panc-1. Particulars: at 10 μM, * = activation. Format: cell-based, human. Put shortly: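 Phospho-Akt (Ser473) was measured by western blot in lysates of KRas G12D Panc-1 cells exposed to test compound for 6 h at 37 °C, either at 10 μM final with 0.3% DMSO or as serial dilutions for IC50. One format used overnight 0.5% FBS starvation followed by a 15 min pulse of 1.5 ng/ml EGF. The other used cells in 10% FBS with no stimulation.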
In general terms: Immunoblotting shows a protein as a band on a membrane.

From patent US12459951B2, “Compounds that interact with RAS superfamily proteins for treatment of cancers, inflammatory diseases, rasopathies, and fibrotic disease” (SHY Therapeutics, LLC, priority 2022, dated 2025) come the findings set out here.

Each structure is given as a SMILES string. pIC50: −log10 of the molar value. Read-outs that look alike come from different tables or passages of the source.

As usually defined, the IC50 is the concentration needed to halve the response being measured.

Take `COc1cc(Nc2nc(-c3nccn3C)nn3cc(-c4ccn(C5CC5)n4)c(C)c23)ncn1` [Compound 135, 6-(1-Cyclopropyl-1H-pyrazol-3-yl)-N-(6-methoxypyrimidin-4-yl)-5-methyl-2-(1-methyl-1H-imidazol-2-yl)pyrrolo[2,1-f][1,2,4]triazin-4-amine]: in the test with IL6, the inhibition is 25 to 49%. Besides, the inhibition at 10 µM in the test with TNF-alpha fell in the range of 1 to 24%. Further, in test [1], the pIC50 was more than 6.82. The “% inh of Akt phosphorylation in Panc-1” value in the test on Akt phosphorylation was “D* (85-100% activation)”.
For `Cc1c(-c2ccn(C3CC3)n2)cn2nc(-c3nccn3C)nc(Nc3ccccn3)c12` [Compound 143, 6-(1-Cyclopropyl-1H-pyrazol-3-yl)-5-methyl-2-(1-methyl-1H-imidazol-2-yl)-N-(pyridin-2-yl)pyrrolo[2,1-f][1,2,4]triazin-4-amine], the inhibition in the test with IL6 lay in the range of 75 to 100%. Further, the inhibition at 10 µM in the test with TNF-alpha was in the range of 50 to 74%. In addition, the pIC50 in test [1] is more than 6.82. For the same compound, in the test on Akt phosphorylation, the “% inh of Akt phosphorylation in Panc-1” value is reported as “D* (85-100% activation)”.
In the same order, the values of `CCc1nc(Nc2nc(-c3nccn3C)nn3cc(-c4ccn(C)n4)c(C)c23)nn1C` [Compound 108, N-(5-Ethyl-1-methyl-1H-1,2,4-triazol-3-yl)-5-methyl-2-(1-methyl-1H-imidazol-2-yl)-6-(1-methyl-1H-pyrazol-3-yl)pyrrolo[2,1-f][1,2,4]triazin-4-amine] are 50 to 74%, 0%, 6.00 to 6.29 and “D* (85-100% activation)”.
In the same order, the values of `CO[C@@H]1CC[C@@H](Nc2nc(-c3nccn3C)nn3cc(-c4ccn(C)n4)c(C)c23)C1` (racemic) [Compound 132, rac N-((1R,3R)-3-Methoxycyclopentyl)-5-methyl-2-(1-methyl-1H-imidazol-2-yl)-6-(1-methyl-1H-pyrazol-3-yl)pyrrolo[2,1-f][1,2,4]triazin-4-amine] are 0%, 0%, less than 6.00 and “A (1-25% inhibition)”.
The like results for `Cc1c(-c2ccn(C3CC3)n2)cn2nc(-c3nccn3C)nc(Nc3cc(OCC(F)(F)F)ccn3)c12` [Compound 140, 6-(1-Cyclopropyl-1H-pyrazol-3-yl)-5-methyl-2-(1-methyl-1H-imidazol-2-yl)-N-(4-(2,2,2-trifluoroethoxy)pyridin-2-yl)pyrrolo[2,1-f][1,2,4]triazin-4-amine] were, in that order, 50 to 74%, 0%, more than 6.82 and “D* (85-100% activation)”.
As to `COc1ccnc(Nc2nc(-c3nccn3C)nn3cc(-c4cnn(C(C)C)c4)c(C)c23)c1` [Compound 165, 6-(1-Isopropyl-1H-pyrazol-4-yl)-N-(4-methoxypyridin-2-yl)-5-methyl-2-(1-methyl-1H-imidazol-2-yl)pyrrolo[2,1-f][1,2,4]triazin-4-amine], the inhibition with IL6 was 50 to 74%. In the test on TNF-alpha, the inhibition at 10 µM was in the range of 1 to 24%. In addition, the pIC50 in test [1] was more than 6.82. Besides, the “% inh of Akt phosphorylation in Panc-1” value in the test on Akt phosphorylation is “D* (85-100% activation)”.
Regarding `COCCO[C@H]1C[C@H](Nc2nc(-c3nccn3C)nn3cc(-c4cccnc4)c(C)c23)C1` [Compound 152, N-((1r,3r)-3-(2-methoxyethoxy)cyclo-butyl)-5-methyl-2-(1-methyl-1H-imidazol-2-yl)-6-(pyridin-3-yl)pyrrolo[2,1-f][1,2,4]triazin-4-amine], in the test with IL6, the inhibition fell in the range of 1 to 24%. In addition, in the test with TNF-alpha, the inhibition at 10 µM amounted to 0%. Moreover, the pIC50 in test [1] was less than 6.00. Moreover, the “% inh of Akt phosphorylation in Panc-1” value in the test on Akt phosphorylation is given as “B* (26-49% activation)”.
With `COc1cncnc1Nc1nc(-c2nccn2C)nn2cc(-c3ccn(C)n3)c(C)c12` [Compound 107, N-(5-Methoxypyrimidin-4-yl)-5-methyl-2-(1-methyl-1H-imidazol-2-yl)-6-(1-methyl-1H-pyrazol-3-yl)pyrrolo[2,1-f][1,2,4]triazin-4-amine], the inhibition in the test on IL6 was 25 to 49%. For the same compound, the inhibition at 10 µM with TNF-alpha lay in the range of 1 to 24%. The pIC50 in test [1] was more than 6.82. Besides, the “% inh of Akt phosphorylation in Panc-1” value in the test with Akt phosphorylation is listed as “C* (46-84% activation)”.
The like results for `Cc1c(-c2ccn(C)n2)cn2nc(-c3nccn3C)nc(Nc3cc(OCCO)ncn3)c12` [Compound 101, 2-((6-((5-Methyl-2-(1-methyl-1H-imidazol-2-yl)-6-(1-methyl-1H-pyrazol-3-yl)pyrrolo[2,1-f][1,2,4]triazin-4-yl)amino)pyrimidin-4-yl)oxy) ethan-1-ol] were, in that order, 50 to 74%, 0%, 6.30 to 6.82 and “D* (85-100% activation)”.
The like results for `Cc1ccnc(Nc2nc(-c3nccn3C)nn3cc(-c4ccn(C5CC5)n4)c(C)c23)c1` [Compound 144, 6-(1-Cyclopropyl-1H-pyrazol-3-yl)-5-methyl-2-(1-methyl-1H-imidazol-2-yl)-N-(4-methylpyridin-2-yl)pyrrolo[2,1-f][1,2,4]triazin-4-amine] were, in that order, 25 to 49%, 1 to 24%, more than 6.82 and “B* (26-49% activation)”.
Consider `Cc1c(-c2ccn(C)n2)cn2nc(-c3nccn3C)nc(Nc3cc4n(n3)CCO4)c12` [Compound 124, N-(5-Methyl-2-(1-methyl-1H-imidazol-2-yl)-6-(1-methyl-1H-pyrazol-3-yl)pyrrolo[2,1-f][1,2,4]triazin-4-yl)-2,3-dihydropyrazolo[5,1-b]oxazol-6-amine], for which the inhibition in the test with IL6 was in the range of 25 to 49%. Further, the inhibition at 10 µM in the test on TNF-alpha was 1 to 24%. For the same compound, in test [1] (Proliferation assay, MiaPaca-2, read-out: MiaPaca-2 IC50 (nM) Pancreatic), the IC50 lay in the range of 1 to 10 nM. Further, the pIC50 in test [1] was more than 6.82. The “% inh of Akt phosphorylation in Panc-1” value with Akt phosphorylation is given as “C* (46-84% activation)”.
`Cc1c(-c2ccn(C)n2)cn2nc(-c3nccn3C)nc(Nc3nnco3)c12.Cl` [Compound 119, N-(5-Methyl-2-(1-methyl-1H-imidazol-2-yl)-6-(1-methyl-1H-pyrazol-3-yl)pyrrolo[2,1-f][1,2,4]triazin-4-yl)-1,3,4-oxadiazol-2-amine hydrochloride salt]: the inhibition in the test with IL6 was 50 to 74%. Further, the inhibition at 10 µM in the test with TNF-alpha was 25 to 49%. In test [1], the pIC50 was 6.00 to 6.29. Further, in the test with Akt phosphorylation, the “% inh of Akt phosphorylation in Panc-1” value is listed as “D* (85-100% activation)”.
In the same order, the values of `CO[C@H]1C[C@@H](Nc2nc(-c3nccn3C)nn3cc(-c4ccn(C)n4)c(C)c23)C1` [Compound 131, N-((1s,3s)-3-Methoxycyclobutyl)-5-methyl-2-(1-methyl-1H-imidazol-2-yl)-6-(1-methyl-1H-pyrazol-3-yl)pyrrolo[2,1-f][1,2,4]triazin-4-amine] are 0%, 1 to 24%, less than 6.00 and “A (1-25% inhibition)”.
With `Cc1c(-c2ccn(C)n2)cn2nc(-c3nccn3C)nc(Nc3ccccn3)c12` [Compound 118, 5-Methyl-2-(1-methyl-1H-imidazol-2-yl)-6-(1-methyl-1H-pyrazol-3-yl)-N-(pyridin-2-yl)pyrrolo[2,1-f][1,2,4]triazin-4-amine], the inhibition in the test on IL6 was in the range of 25 to 49%. The inhibition at 10 µM in the test on TNF-alpha was in the range of 1 to 24%. Further, in test [1], the pIC50 is more than 6.82. Also, the “% inh of Akt phosphorylation in Panc-1” value in the test on Akt phosphorylation is reported as “D* (85-100% activation)”.
